Results taken from ChEMBL document CHEMBL6115041, “Discovery of AIC263282, a Hepatitis B Virus Capsid Assembly Modulator Ready for Candidate Profiling” (J Med Chem, 2025).
≈ marks a conversion by molar mass, not a printed value.

Columns and labels:
[1] = Kinetic solubility of compound; type: physicochemical
[2] = tested on: Hepatitis B virus; assay: Antiviral activity against HBV infected in human HePAD38 cells measured after 6 days by qPCR analysis; type: functional, organism-based; conditions: HePAD38, 144 h
[3] = Metabolic stability in mouse liver microsome assessed as liver blood flow by HPLC analysis relative to control; type: ADME; conditions: microsomes
[4] = Cytotoxicity against human HePAD38 cells measured after 6 days by prestoblue reagent based analysis; type: toxicity, cell-based; conditions: time 6 day
[5] = biological target: Voltage-gated inwardly rectifying potassium channel KCNH2 (Homo sapiens, UniProt Q12809); assay: Inhibition of human ERG by patch clamp assay; type: toxicity
[6] = tested on: hERG; assay: Selectivity ratio of IC50 for human ERG to EC50 for Antiviral activity against HBV infected in human HePAD38 cells; type: toxicity, cell-based; conditions: HePAD38 cells infected with HBV (for the EC50), read-out: Ratio IC50/EC50

Sequence of Voltage-gated inwardly rectifying potassium channel KCNH2 (Q12809 whole entry): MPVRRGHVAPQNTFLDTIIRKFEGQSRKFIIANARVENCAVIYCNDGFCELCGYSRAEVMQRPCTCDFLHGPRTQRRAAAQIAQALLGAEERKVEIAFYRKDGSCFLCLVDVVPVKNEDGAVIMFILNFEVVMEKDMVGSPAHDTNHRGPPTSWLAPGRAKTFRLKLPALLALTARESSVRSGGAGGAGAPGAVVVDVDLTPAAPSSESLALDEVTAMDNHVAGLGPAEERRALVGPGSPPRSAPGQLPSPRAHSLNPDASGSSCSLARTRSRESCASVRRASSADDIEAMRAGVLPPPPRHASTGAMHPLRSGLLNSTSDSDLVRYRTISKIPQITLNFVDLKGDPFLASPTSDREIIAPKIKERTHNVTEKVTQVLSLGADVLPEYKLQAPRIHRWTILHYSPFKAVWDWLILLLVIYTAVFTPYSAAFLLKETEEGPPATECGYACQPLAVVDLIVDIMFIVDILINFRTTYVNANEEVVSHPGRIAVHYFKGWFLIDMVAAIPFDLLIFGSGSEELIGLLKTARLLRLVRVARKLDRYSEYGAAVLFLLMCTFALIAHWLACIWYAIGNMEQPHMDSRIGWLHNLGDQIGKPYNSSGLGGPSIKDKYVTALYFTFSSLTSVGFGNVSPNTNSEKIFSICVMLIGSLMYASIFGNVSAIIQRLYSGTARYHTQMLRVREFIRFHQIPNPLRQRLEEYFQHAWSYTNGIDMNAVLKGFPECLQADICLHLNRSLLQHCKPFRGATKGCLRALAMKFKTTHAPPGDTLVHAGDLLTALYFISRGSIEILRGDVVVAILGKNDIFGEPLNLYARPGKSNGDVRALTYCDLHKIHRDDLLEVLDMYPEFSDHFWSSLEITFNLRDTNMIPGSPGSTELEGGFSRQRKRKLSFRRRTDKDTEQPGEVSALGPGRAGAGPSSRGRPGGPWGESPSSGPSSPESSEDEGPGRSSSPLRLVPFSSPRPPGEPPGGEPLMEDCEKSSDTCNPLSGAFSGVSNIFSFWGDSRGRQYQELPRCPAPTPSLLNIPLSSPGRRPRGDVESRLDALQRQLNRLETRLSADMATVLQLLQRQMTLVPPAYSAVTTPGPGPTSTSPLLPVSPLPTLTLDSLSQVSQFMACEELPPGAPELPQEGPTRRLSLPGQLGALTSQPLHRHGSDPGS

Compound | Kinetic_solubility [1] | EC50 [2] [nM] | further results
CCc1cc(F)cc2[nH]c(C(=O)N3CCN(C(=O)C(=O)NC4(C(F)(F)F)CCOCC4)CC3)cc12 | Not_determined(Insoluble) | 2.4 | LBF [3]: 56%
CC1(NC(=O)C(=O)N2CCN(C(=O)c3cc4cc(F)c(F)cc4[nH]3)CC2)CS(=O)(=O)C1 | Not_determined(Insoluble) | 240 | CC50 at 144 h [4]: > 10000 nM
C[C@@H](NC(=O)C(=O)N1CCN(C(=O)/C=C/c2c(N)cc(F)cc2F)CC1)C(F)(F)F |  | 53 | 
O=C(NC1(C(F)(F)F)CCOCC1)C(=O)N1CCN(C(=O)c2cc3cc(F)c(F)cc3[nH]2)CC1 |  | 18 | 
CC1(NC(=O)C(=O)N2CCN(C(=O)c3cc4cc(F)c(F)cc4[nH]3)CC2)COC1 |  | 52 | 
C[C@H]1CN(C(=O)C(=O)NC2(C)CCOCC2)CCN1C(=O)c1cc2cc(F)c(F)cc2[nH]1 |  | 60 | 
Cc1cc(F)cc2[nH]c(C(=O)N3CCN(C(=O)C(=O)NC4(C(F)(F)F)CCOCC4)CC3)cc12 | Not_determined(Insoluble) | 12 | 
Cc1noc(C2(NC(=O)C(=O)N3CCN(C(=O)c4cc5cc(F)c(F)cc5[nH]4)CC3)CC(F)(F)C2)n1 |  | 13 | 
Cc1noc(C2(NC(=O)C(=O)N3CCN(C(=O)c4cc5c(F)c(F)c(F)cc5[nH]4)CC3)CC(F)(F)C2)n1 | Not_determined(Insoluble) | 28 | 
CCc1cc(F)cc2[nH]c(C(=O)N3CCN(C(=O)C(=O)NC4(C)COC4)CC3)cc12 |  | 19 | 
CN(C)C(=O)C1(NC(=O)C(=O)N2CCN(C(=O)c3cc4cc(F)c(F)cc4[nH]3)CC2)CC(F)(F)C1 | Not_determined(Insoluble) | 160 | CC50 at 144 h [4]: > 32000 nM
CCc1cc(F)cc2[nH]c(C(=O)N3CCN(C(=O)C(=O)NC4(C(F)(F)F)COC4)CC3)cc12 |  | 6.2 | 
CCc1cc(F)cc2[nH]c(C(=O)N3CCN(C(=O)C(=O)NC4(c5ccc(C)nc5)COC4)C[C@H]3C)cc12 | Not_determined(Insoluble) | 1.3 | LBF [3]: 93%
Cc1noc(C2(NC(=O)C(=O)N3CCN(C(=O)c4cc5c(Cl)cccc5[nH]4)CC3)CC(F)(F)C2)n1 | Not_determined(Insoluble) | 51 | 
Cc1noc(C2(NC(=O)C(=O)N3CCN(C(=O)c4cc5c(Cl)c(F)ccc5[nH]4)CC3)CC(F)(F)C2)n1 | Not_determined(Insoluble) | 18 | LBF [3]: 44%
CC1(NC(=O)C(=O)N2CCN(C(=O)c3cc4cc(F)c(F)cc4[nH]3)CC2)CCC1 |  | 34 | 
CCc1cc(F)cc2[nH]c(C(=O)N3CCN(C(=O)C(=O)NC4(c5cnn(C)c5)COC4)C[C@H]3C)cc12 |  | 2.4 | 
O=C(NC1(C(F)(F)F)CCOCC1)C(=O)N1CCN(C(=O)c2cc3c(Cl)cc(F)cc3[nH]2)CC1 | Not_determined(Insoluble) | 14 | 
Cc1noc(C2(NC(=O)C(=O)N3CCN(C(=O)c4cc5c(F)c(F)ccc5[nH]4)CC3)CC(F)(F)C2)n1 | Not_determined(Insoluble) | 23 | 
CCc1cc(F)cc2[nH]c(C(=O)N3CCN(C(=O)C(=O)NC4(C)COC4)C[C@H]3C)cc12 |  | 3.8 | 

Compound | Kinetic_solubility [1] | EC50 [2] [nM] | further results
CCc1cc(F)cc2[nH]c(C(=O)N3CCN(C(=O)C(=O)NC4(c5ccncc5F)COC4)C[C@H]3C)cc12 |  | 2.4 | 
O=C(NC1(C(F)(F)F)CC1)C(=O)N1CCN(C(=O)c2cc3cc(F)c(F)cc3[nH]2)CC1 | Not_determined(Insoluble) | 26 | CC50 at 144 h [4]: > 10000 nM
O=C(NC1(c2ccccn2)CCC1)C(=O)N1CCN(C(=O)c2cc3cc(F)c(F)cc3[nH]2)CC1 |  | 24 | solubility kinetic ([1]; read-out: Kinetic_solubility): 79 µM (≈ 36.9 µg/mL); CC50 at 144 h [4]: > 10000 nM; LBF [3]: 43%
CC1(NC(=O)C(=O)N2CCN(C(=O)c3cc4cc(F)c(F)cc4[nH]3)CC2)CCOCC1 |  | 30 | 
C[C@@H]1CN(C(=O)C(=O)NC2(C)CCOCC2)CCN1C(=O)c1cc2cc(F)c(F)cc2[nH]1 |  | 7.5 | 
CCc1cc(F)cc2[nH]c(C(=O)N3CCN(C(=O)C(=O)NC4(C(F)(F)F)CCOCC4)C[C@H]3C)cc12 |  | 2.2 | 
CCc1cc(F)cc2[nH]c(C(=O)N3CCN(C(=O)C(=O)NC4(c5ncccn5)COC4)C[C@H]3C)cc12 |  | 7 | 
Cc1noc(C2(NC(=O)C(=O)N3CCN(C(=O)c4cc5ccc(Cl)cc5[nH]4)CC3)CC(F)(F)C2)n1 | Not_determined(Insoluble) | 92 | 
CCc1cc(F)cc2[nH]c(C(=O)N3CCN(C(=O)C(=O)NC4(c5nc(C)no5)COC4)C[C@H]3C)cc12 |  | 2.9 | 
Cc1noc(C2(NC(=O)C(=O)N3CCN(C(=O)c4cc5cc(F)c(Cl)cc5[nH]4)CC3)CC(F)(F)C2)n1 | Not_determined(Insoluble) | 28 | 
CC1(NC(=O)C(=O)N2CCN(C(=O)c3cc4cc(F)c(F)cc4[nH]3)CC2)CC(F)(F)C1 |  | 9.8 | 
C[C@@H]1CN(C(=O)C(=O)NC2(C(F)(F)F)COC2)CCN1C(=O)c1cc2cc(F)c(F)cc2[nH]1 |  |  | IC50 [5]: 9800 nM; selectivity ratio [6]: 653
O=C(NC1(c2c[nH]nn2)CC(F)(F)C1)C(=O)N1CCN(C(=O)c2cc3cc(F)c(F)cc3[nH]2)CC1 |  | 54 | 
O=C(NC1(c2cccnc2)CCC1)C(=O)N1CCN(C(=O)c2cc3cc(F)c(F)cc3[nH]2)CC1 |  | 7.5 | 
Cc1noc(C2(NC(=O)C(=O)N3CCN(C(=O)c4cc5ccccc5[nH]4)CC3)CC(F)(F)C2)n1 | Not_determined(Insoluble) | 140 | 
CCc1cc(F)cc2[nH]c(C(=O)N3CCN(C(=O)C(=O)NC4(c5nc(C)no5)CC(F)(F)C4)CC3)cc12 |  | 10 | 
CCc1cc(F)cc2[nH]c(C(=O)N3CCN(C(=O)C(=O)NC4(c5cnc(OC)cn5)COC4)C[C@H]3C)cc12 |  | 2.5 | 
O=C(NC1(c2ccncc2)CCC1)C(=O)N1CCN(C(=O)c2cc3cc(F)c(F)cc3[nH]2)CC1 |  | 0.79 | 
C[C@@H](NC(=O)C(=O)N1CCN(C(=O)c2cc3cc(F)c(F)cc3[nH]2)CC1)C(F)(F)F |  | 127 | 
